From patent US20030087887A1, “Novel fusidic acid derivatives” (priority 2001, published 2003)
Converted amounts (≈) assume the structure as drawn. Where two headings read alike, the source gives them in different places.

How the values were obtained:
Format in all cases: cell-based
[1] = test system: S. aureus CJ247; experiment: MIC, agar diffusion, S. aureus CJ247; details: Staphylococcus aureus, read-out: in vitro activities MIC
From the text: (§1) In vitro investigations have shown a relatively high potency of compounds of the invention against all bacteria including gram-positive and gram-negative strains (Staphylococci, Streptococci, Corynebacteriae, Mycobacteriae, Proteus, Propionibacterium, Pseudomonas, Neisseriae, E. coli) and fungal strains (Candida and Aspergillus). […] In addition, the studies of post-antibiotic effects point towards a strong bactericidal effect of the compounds of the invention. […] The potency of new polyaminated fusidic acid analogues is estimated by comparing the inhibition of growth of different microorganisms produced by known concentrations of the analogue to be examined and a reference compound such as fusidic acid. The microbiological assay set up is in agreement with the European Pharmacopoeia 3rd edition (1997). It is an agar diffusion method where the same volume of the tested solution is added to cavities in agar. The inhibition zones are function of the concentration of the fusidic acid analogue used. All assays are run with fusidic acid as reference substance.

[2] = test system: S. aureus CJ200; experiment: MIC, agar diffusion, S. aureus CJ200; details: Staphylococcus aureus, read-out: in vitro activities MIC
From the text: as §1

[3] = test system: S. aureus CJ234R; experiment: MIC, agar diffusion, S. aureus CJ234R; details: Staphylococcus aureus, read-out: in vitro activities MIC
From the text: as §1

[4] = test system: S. aureus CJ234F; experiment: MIC, agar diffusion, S. aureus CJ234F; details: Staphylococcus aureus; S. aureus CJ234F (MRSA, Fus. resistant); read-out: in vitro activities MIC
From the text: as §1

[5] = test system: S. aureus N6; experiment: MIC, agar diffusion, S. aureus N6; details: Staphylococcus aureus; S. aureus N6 (Fus. resistant); read-out: in vitro activities MIC
From the text: as §1

[6] = test system: S. epidermis CK5; experiment: MIC, agar diffusion, S. epidermis CK5; details: Staphylococcus epidermidis, read-out: in vitro activities MIC
From the text: as §1

[7] = test system: Propionibacterium acnes FN33; experiment: MIC, agar diffusion, Propionibacterium acnes FN33; details: Cutibacterium acnes, read-out: in vitro activities MIC
From the text: as §1

[8] = test system: Corynebacterium xerosis FF; experiment: MIC, agar diffusion, Corynebacterium xerosis FF; details: read-out: in vitro activities MIC
From the text: as §1

[9] = test system: Streptococcus pyogenes EC88; experiment: MIC, agar diffusion, Streptococcus pyogenes EC88; details: read-out: in vitro activities MIC
From the text: as §1

[10] = test system: E. coli HA165; experiment: MIC, agar diffusion, E. coli HA165; details: Escherichia coli, read-out: in vitro activities MIC
From the text: as §1

[11] = test system: Pseudomonas aeruginosa BA17; experiment: MIC, agar diffusion, Pseudomonas aeruginosa BA17; details: read-out: in vitro activities MIC
From the text: as §1

[12] = test system: Saccaromyces cervisiae ZZ7; experiment: MIC, agar diffusion, Saccaromyces cervisiae ZZ7; details: Saccharomyces cerevisiae, read-out: in vitro activities MIC
From the text: as §1

[13] = test system: Candida albicans ZA; experiment: MIC, agar diffusion, Candida albicans ZA; details: read-out: in vitro activities MIC
From the text: as §1

[14] = test system: Asbergillus niger ZM35; experiment: MIC, agar diffusion, Asbergillus niger ZM35; details: Aspergillus niger, read-out: in vitro activities MIC
From the text: as §1

[15] = test system: Streptococcus faecium EI19; experiment: MIC, agar diffusion, Streptococcus faecium EI19; details: Enterococcus faecium; Streptococcus faecium EI19 (Penicillin resistant); read-out: in vitro activities MIC
From the text: as §1

[16] = S. aureus CJ234R (MRSA, Rifampicin resistant)

MIC [3, 16] [µg/mL]	Structure (SMILES)	MIC [1] [µg/mL]	MIC [2] [µg/mL]	MIC ([3]; MRSA) [µg/mL]	MIC [4] [µg/mL]	MIC [5] [µg/mL]	MIC [6] [µg/mL]	MIC [7] [µg/mL]	MIC [8] [µg/mL]	MIC [9] [µg/mL]	MIC [10] [µg/mL]	MIC [11] [µg/mL]	MIC [12] [µg/mL]	MIC [13] [µg/mL]	MIC [14] [µg/mL]	MIC [15] [µg/mL]
–	CC(=O)O[C@H]1C[C@@]2(C)C(C[C@@H](O)C3[C@@]4(C)CC[C@@H](OC(C)=O)[C@@H](C)C4CC[C@@]32C)[C@@H]1[C@H](CCCC(C)C)C(=O)NCCCNCCCCNCCCN (stereo partly drawn) [Compound 173, 21-N-[3′-({4′-[(3′-aminopropyl)amino]butyl}amino)propyl]-3-OAc-17R,20S,24,25-tetrahydrofusid-21-amide]	4 (≈ 5.35 µM)	4 (≈ 5.35 µM)	1 (≈ 1.34 µM)	4 (≈ 5.35 µM)	4 (≈ 5.35 µM)	1 (≈ 1.34 µM)	4 (≈ 5.35 µM)	4 (≈ 5.35 µM)	4 (≈ 5.35 µM)	4 (≈ 5.35 µM)	4 (≈ 5.35 µM)	4 (≈ 5.35 µM)	125 (≈ 167 µM)	125 (≈ 167 µM)	–
–	CC(=O)O[C@H]1C[C@@]2(C)C(C[C@@H](O)C3[C@@]4(C)CC[C@@H](O)[C@@H](C)C4CC[C@@]32C)[C@@H]1[C@H](CCCC(C)C)C(=O)NCCCCNCCCNCCCCN (stereo partly drawn) [Compound 123, 21-N-[4′-({3′-[(4′-aminobutyl)amino]propyl}amino)butyl]-17R,20S,24,25-tetrahydrofasid-21-amide]	4 (≈ 5.56 µM)	4 (≈ 5.56 µM)	–	4 (≈ 5.56 µM)	4 (≈ 5.56 µM)	4 (≈ 5.56 µM)	4 (≈ 5.56 µM)	4 (≈ 5.56 µM)	4 (≈ 5.56 µM)	16 (≈ 22.2 µM)	16 (≈ 22.2 µM)	16 (≈ 22.2 µM)	16 (≈ 22.2 µM)	4 (≈ 5.56 µM)	4 (≈ 5.56 µM)
1 (≈ 2 µM)	C/C(=C\C(=O)OCCCCCCCCC(=O)O)C[C@@H]1OC[C@H](C[C@@H]2O[C@H]2[C@@H](C)[C@H](C)O)[C@@H](O)[C@H]1O [Mupirocin, reference compound]	0.5 (≈ 0.999 µM)	1 (≈ 2 µM)	–	0.5 (≈ 0.999 µM)	–	0.04 (≈ 0.0799 µM)	–	–	1 (≈ 2 µM)	–	–	–	–	–	–
–	CC(=O)O[C@H]1C[C@@]2(C)C(C[C@@H](O)C3[C@@]4(C)CC[C@@H](OC(C)=O)[C@@H](C)C4CC[C@@]32C)[C@@H]1[C@H](CCCC(C)C)C(=O)NCCCNCCCNCCCN (stereo partly drawn) [Compound 172, 21-N-[3′-({3′-[(3′-aminopropyl)amino]propyl}amino)propyl]-3-OAc-17R,20S,24,25-tetrahydrofusid-21-amide]	4 (≈ 5.46 µM)	4 (≈ 5.46 µM)	1 (≈ 1.36 µM)	4 (≈ 5.46 µM)	4 (≈ 5.46 µM)	4 (≈ 5.46 µM)	1 (≈ 1.36 µM)	4 (≈ 5.46 µM)	4 (≈ 5.46 µM)	4 (≈ 5.46 µM)	4 (≈ 5.46 µM)	64 (≈ 87.3 µM)	64 (≈ 87.3 µM)	64 (≈ 87.3 µM)	–
16 (≈ 47.4 µM)	CC(=O)NC[C@H]1CN(c2ccc(N3CCOCC3)c(F)c2)C(=O)O1 [Linezolid, reference compound]	1 (≈ 2.96 µM)	4 (≈ 11.9 µM)	–	1 (≈ 2.96 µM)	–	0.25 (≈ 0.741 µM)	1 (≈ 2.96 µM)	–	4 (≈ 11.9 µM)	–	–	–	–	–	–
